Measured values from patent publication US20220280516A1, “PEGYLATED HEPARIN NANOMICELLE LOADED WITH CARBOXYLIC ACID ANTI-TUMOR DRUG AND PREPARATION METHOD THEREOF” (priority 2020, published 2022).

System: 5T33 multiple myeloma cells
Test: In vivo experiment of multiple myeloma
Settings: 5T33 myeloma mice, subcutaneous
Protocol: Thirty 6-week-old mice are divided into three groups, which are administrated with free bendamustine (Group I), PEG-Py-HP-bendamustine (Group II) and PEG-Mal-HP-bendamustine (Group III) respectively. Male and female animals in each group are halved, and there is no statistically significant difference in body weight among animals in each group. The dosage of free bendamustine group is 0.1 ml/kg body weight/day, and that of PEG-Py-HP-bendamustine group and PEG-Mal-HP-bendamustine group is 20 mg/kg (body weight/day).
One week after injection of 1,000,000 5T33 multiple myeloma cells into the tail veins of mice, drugs are administered subcutaneously according to the above scheme, for three times a week. During the administration period, the animals are weighed every day, and the dosage on that day is determined according to the weight, and the animals are continuously administered until the death of the mice. The venous blood of mice is collected and stored every week, and the time of death of mice is recorded.

Cn1c(CCCC(=O)O)nc2cc(N(CCCl)CCCl)ccc21 [free bendamustine, Bendamustine]
Average survival days of mice after drug injection (three times a week until death): 36 days
Average tumor load in serum of mice after drug injection (1 day): 132.2 µg/mL
Average tumor load in serum of mice after drug injection (8 days): 201.5 µg/mL
Average tumor load in serum of mice after drug injection (15 days): 321.2 µg/mL
Average tumor load in serum of mice after drug injection (22 days): 608.4 µg/mL
Average tumor load in serum of mice after drug injection (29 days): 873.3 µg/mL
Average tumor load in serum of mice after drug injection (36 days): 946.8 µg/mL
